Source: ChEMBL document CHEMBL5634151, “Anti-adipogenic action of a novel oxazole derivative through activation of AMPK pathway” (Eur J Med Chem, 2023)
Calls of active or inactive are those of the source.

Assays:
[1] = tested on: 3T3-L1; test: Inhibition of MDI-cocktail induced adipogenic differentiation in mouse 3T3-L1 pre-adipocyte cells assessed as inhibition of lipid accumulation by Oil Red O staining based microscopic analysis; assay type: functional, cell-based; conditions: dose 0.5-20 µM
[2] = tested on: 3T3-L1; test: Anti-adipogenic activity in MDI-cocktail differentiated mouse 3T3-L1 pre-adipocyte cells assessed as inhibition of adipogenesis by Oil Red O staining based microscopic analysis; assay type: functional, cell-based
[3] = tested on: C3H 10T1/2; test: Inhibition of MDI-cocktail induced adipogenic differentiation in mouse C3H 10T1/2 cells assessed as inhibition of lipid accumulation by Oil Red O staining based microscopic analysis; assay type: functional, cell-based; conditions: dose 0.5-20 µM
[4] = tested on: C3H 10T1/2; test: Inhibition of MDI-cocktail induced adipogenic differentiation in mouse C3H 10T1/2 cells assessed as reduction in lipid bound stain absorbance at 0.5 to 25 uM by Oil Red O staining based microscopic analysis; assay type: functional, cell-based; conditions: dose 0.5-25 µM
[5] = tested on: 3T3-L1; test: Inhibition of MDI-cocktail induced adipogenic differentiation in mouse 3T3-L1 pre-adipocyte cells assessed as reduction in PPARgamma protein expression at 0.5 to 5 uM by Western blot analysis; assay type: functional, cell-based; conditions: dose 0.5-5 µM
[6] = tested on: 3T3-L1; test: Anti-adipogenic activity in MDI-cocktail differentiated mouse 3T3-L1 pre-adipocyte cells assessed as reduction in adipogenic differentiation at 5 uM measured after 3 to 5 days by Oil Red O staining based microscopic analysis; assay type: functional, cell-based; conditions: time 3-5 day
[7] = tested on: 3T3-L1; test: Anti-adipogenic activity in MDI-cocktail differentiated mouse 3T3-L1 pre-adipocyte cells assessed as reduction in FASN protein expression at 5 uM measured for 3 to 7 days by immunoblotting analysis; assay type: functional, cell-based; conditions: time 3-7 day
[8] = tested on: 3T3-L1; test: Induction of cell cycle arrest in MDI-cocktail differentiated mouse 3T3-L1 pre-adipocyte cells assessed as accumulation of cells at G1 phase at 3 to 5 uM incubated for 16 hrs by propidium iodide staining based flow cytometry analysis; assay type: functional; conditions: dose 3-5 µM
[9] = tested on: 3T3-L1; test: Induction of mitochondrial respiration in MDI-cocktail differentiated mouse 3T3-L1 pre-adipocyte cells assessed as increase in oxygen consumption rate at 5 uM incubated for 72 hrs by Seahorse XFp flux analyzer; assay type: functional, cell-based
[10] = tested on: 3T3-L1; test: Induction of basal respiration during early phase in MDI-cocktail differentiated mouse 3T3-L1 pre-adipocyte cells 5 uM incubated for 72 hrs by Seahorse XFp flux analyzer; assay type: functional, cell-based
[11] = tested on: 3T3-L1; test: Induction of maximum respiration during early phase in MDI-cocktail differentiated mouse 3T3-L1 pre-adipocyte cells 5 uM incubated for 72 hrs by Seahorse XFp flux analyzer; assay type: functional, cell-based
[12] = tested on: Syrian golden hamster; test: Anti-obesity activity in high-fat diet induced Syrian golden hamster model assessed as reduction in adipose hypertrophy at 50 mg/kg, po administered for 7 days by H and E staining based inverted microscopic analysis; assay type: functional, organism-based; conditions: Mesocricetus auratus, time 7.0 day
[13] = tested on: Mesocricetus auratus; test: In vivo activation of AMPK in high-fat diet induced Syrian golden hamster model assessed as increase in AMPK phosphorylation at Th172 residue in eWAT at 50 mg/kg, po administered for 7 days by Western blot analysis; assay type: functional, organism-based; conditions: time 7.0 day

Cc1ccc(-c2cnc(-c3ccc[n+](Cc4cccc(C)c4)c3)o2)cc1.[Br-]
390 nM: IC50 ([2]; read-out: IC50) | IC50 ([2]; read-out: pIC50 (converted))
active: inhibition [1] | inhibition [3] | inhibition [4] | inhibition [5] | Activity [6] | Activity [7] | Activity [8] | Activity [9] | Activity [10] | Activity [11] | Activity [12] | Activity [13]
